One compound from US20230381261A1, “A Purified Extract Isolated from Agrimonia Coreana Nakai Containing Abundant Amount of Active Ingredient, the Preparation Thereof, the Composition Comprising the Same as an Active Ingredient for Preventing or Treating Inflammation, Allergy and Atopic Dermatitis and the Use Thereof” (priority 2020, published 2023) can be followed below.

The test system of assay [1] is IL-2 release in Jurkat T cell. The assay can be described thus: Inhibition of IL-2 release in Jurkat T cell (ELISA, anti-CD3/anti-CD28 stimulation). It is filed as cell-based. Particulars: Homo sapiens; 10 μM BTP2 control; anti-CD3 and anti-CD28 stimulated Jurkat T cell; 72 hours; read-out: Inhibition rate on IL-2 release (%). The protocol:
In order to determine the anti-immunological activity of inventive extract, following inhibition test of cytokine release in Jukrat T cell was performed according to the procedure disclosed in the literature (ARTHRITIS & RHEUMATISM Vol. 52, No. 9, September 2005, pp 2730-2739).
ELISA (Enzyme-linked immunosorbent assay) was performed to determine the release of IL-2 in Jukrat T cell.
Jukrat T cell (TIB-152, American Type Culture Collection(ATCC)) was inoculated into 96 well plates (2×10^5 cells/well) and stimulated with anti-CD3 and anti-CD 28.
In order to determine the inhibition effect on the IL-2 release of T cell of inventive extract, the test samples, i.e., the extract disclosed in Comparative Examples and Examples, were inoculated into the well plate to be 100 μg/mL with the stimuli of anti-CD3 and anti-CD 28.
10 μM BTP2([N-{4-[3,5-bis(Trifluoromethyl)-1H-pyrazol-1-yl]phenyl}-4-methyl-1,2,3-thiadiazole-5-carboxamide], 203890-M, Calbiochem) was used as a control group. […]
The release of cytokines was analyzed by IL-2 specifically reacting ELISA kit (BGK60568, Peprotech Inc. NJ, USA) and the content of IL-2 was determined according to the instruction manual of manufacture.
On the technique in general: ELISA stands for enzyme-linked immunosorbent assay.

In assay [2] the test system is CD4+ T cell. The assay is described as follows: Inhibition of CD4+ T cell proliferation (CFSE, flow cytometry, anti-CD3/anti-CD28 stimulation). Particulars: Homo sapiens; 10 μM BTP2 control; anti-CD3 and anti-CD28 stimulated CD4+ T cell; 72 hours; read-out: Inhibition rate on T cell proliferation (%). It is filed as cell-based. The protocol: In order to determine the anti-immunological activity of inventive extract, following inhibition test of proliferation of T cell isolated from human blood was performed according to the procedure disclosed in the literature (J Immunol Jul. 15, 2002, 169 (2) 802-808).
In order to evaluate the anti-immunological activity of inventive extract, PBMC(peripheral blood mononuclear cell) and T cell which had been used in the various immunological analysis, were prepared from human blood using Fiicoll (GE17-5442-02, GE Healthcare) according to the previous literature (BIOPRESERVATION AND BIOBANKING, Volume 14, Number 5, 2016).
CD4+ T cell was carefully isolated from the isolated PBMC using by T cell isolation kit (130-096-533, Miltenyi biotec.) according to the manufacture's manual instruction.
The anti-immunological effect on T cell was evaluated by the inhibition effect on the proliferation of CD4+ T cell. […]
The T cell treated with test sample was incubated at 37° C. for 72 hours in 5% CO2 incubator (MCO-18AC, Panasonic) and then the cell was collected to be analyzed using Flow cytometry (BD LSRFortessa, BD Biosciences).

Each structure is given as a SMILES string.

Regarding `Cc1nnsc1C(=O)Nc1ccc(-n2nc(C(F)(F)F)cc2C(F)(F)F)cc1` [BTP2, N-{4-[3,5-bis(Trifluoromethyl)-1H-pyrazol-1-yl]phenyl}-4-methyl-1,2,3-thiadiazole-5-carboxamide], the inhibition at 10 µM was 90.3 ± 0.552% in assay [1] and 98.84 ± 0.0006% in assay [2].
